Measurements as given in patent US12162878B2 (HINOVA PHARMACEUTICALS INC., priority 2018, dated 2024).
Where “and” joins values, the source holds several entries; their conditions need not be identical. Equal values may be shown once. Values belong to the molecule of their own block, whether it stands above or below them.

Legend:
BRD2(1,2) = BRD2(1,2) (Homo sapiens (Human), UniProt P25440); test: AlphaScreen binding of compounds on BRD2 (D1+D2); conditions: read-out: IC50 against BRD2(1,2)
Description: (§1) Homogeneous time-resolved fluorescence technology (HTRF) was used to determine the binding effect of compounds on BRD4 (D1+D2) and BRDT (D1) proteins, as well as AlphaScreen method was used to detect the binding effect of compounds on BRD2 (D1+D2) and BRD3 (D1+D2) proteins.
(§2) The compounds were screened in vitro, and each compound was serially diluted to 10 concentrations. Four proteins BRD4 (D1+D2), BRDT (D1), BRD2 (D1+D2) and BRD3 (D1+D2) were chosen to determine the IC50 values of compounds (see Table 1).
(§3) 4. Compound treatment: The test compound was dissolved in dimethyl sulfoxide (DMSO), and the storage concentration was 10 mM.
(§4) 6. AlphaScreen Detection Procedures:
(§5) 1) Preparing One-Fold Concentration of Detection Buffer
(§6) One-fold concentration of detection buffer was prepared (Improved HEPES buffer)
(§7) 2) Gradient Dilution of Compounds
(§8) Echo automatic sampler was used to transfer the compound to the detection plate for gradient dilution, so that the final concentration of dimethyl sulfoxide was 0.1%.
(§9) 3) Preparation of Protein Solution
(§10) The protein was dissolved in one-fold concentration of detection buffer.
(§11) 4) Preparation of Substrate Solution
(§12) The peptide was dissolved in one-fold concentration of detection buffer to prepare the substrate solution.
(§13) 5) 5 μL protein solution was transferred to the detection plate, and one-fold concentration of detection buffer (5 μL) was placed in the negative control wells.
(§14) 6) The plate was incubated for 15 min at room temperature.
(§15) 7) 5 μL substrate solution was added to each well to start the reaction.
(§16) 8) The plate was incubated for additional 60 min at room temperature.
(§17) 9) Preparation of acceptor solution and donor solution in one-fold concentration of assay buffer Acceptor solution (15 μL) and donor solution (15 μL) were respectively added, and then incubated at room temperature for 60 min and protected against exposure to light.
(§18) 10) The endpoint was read in EnSpire and Alpha mode.
(§19) The experimental data were recorded in an Excel file and equation (1) was used to get the inhibition rate. Inh%=(Max−Signal)/(Max−Min)*100 Equation (1):
(§20) The obtained data were input into GraphPad software, and equation (2) was used to obtain the IC50 value. Y=Bottom+(Top−Bottom)/(1+10^((Log IC50−X)*Hill Slope)) Formula (2): […]
(§21) Wherein, Y axis was the inhibition rate, and the X axis was the compound concentration.

BRD4(1,2) = BRD4(1,2) (Homo sapiens (Human), UniProt O60885); test: HTRF binding of compounds on BRD4 (D1+D2); conditions: read-out: IC50 against BRD4(1,2)
Description: as §1, §2, §3
(§22) 5. Steps for Homogeneous Time-Resolved Fluorescence Detection:
(§23) 1) According to the arrangement of the detection plate, all compounds were diluted in Echo plate.
(§24) The final dilution concentration of DMSO is 0.1%.
(§25) 2) The compound or DMSO was transferred to a 384-well detection plate with the Echo automatic sampler.
(§26) 3) Two-fold concentration of the mixture of protein and peptide was added to the detection plate.
(§27) 4) Two-fold concentration of mixed detection solution was added to the test plate, and shaken for 30 s.
(§28) 5) Incubating for 2 h at room temperature.
(§29) 6) Fluorescence signal was read on Envision multi-function microplate reader (excitation light wavelength being 340 nm, and emission light wavelength being 615 nm and 665 nm).
(§30) The experimental data were recorded in an Excel file, and equation (1) was used to obtain the inhibition rate. Inh%=(Max−Signal)/(Max−Min)*100 Equation (1):
(§31) The obtained data was recorded in GraphPad software, and equation (2) was used to provide the IC50 values. Y=Bottom+(Top−Bottom)/(1+10^((Log IC50−X)*Hill Slope)) Equation (2): […]
(§32) Y axis was the inhibition rate, and X axis was the compound concentration.

BRD3(1,2) = BRD3(1,2) (Homo sapiens (Human), UniProt Q15059); test: AlphaScreen binding of compounds on BRD3 (D1+D2); conditions: read-out: IC50 against BRD3(1,2)
BRD3(1,2), sequence (Q15059 29-417): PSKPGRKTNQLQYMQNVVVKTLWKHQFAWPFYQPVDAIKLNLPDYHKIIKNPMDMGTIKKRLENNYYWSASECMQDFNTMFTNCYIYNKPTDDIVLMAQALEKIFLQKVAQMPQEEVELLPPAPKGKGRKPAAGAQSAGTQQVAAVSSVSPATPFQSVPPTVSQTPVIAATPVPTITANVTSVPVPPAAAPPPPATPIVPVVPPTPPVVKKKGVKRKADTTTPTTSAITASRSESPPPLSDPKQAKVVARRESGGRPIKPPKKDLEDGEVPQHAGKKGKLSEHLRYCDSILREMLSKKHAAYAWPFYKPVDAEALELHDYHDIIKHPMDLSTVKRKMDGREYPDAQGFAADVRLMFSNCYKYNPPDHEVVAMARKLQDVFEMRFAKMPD
Description: as §1, §2, §3, §4, §5, §6, §7, §8, §9, §10, §11, §12, §13, §14, §15, §16, §17, §18, §19, §20, §21

BRDT(D1) = BRDT(D1) (Homo sapiens (Human), UniProt Q58F21); test: HTRF binding of compounds on BRDT (D1); conditions: read-out: IC50 against BRDT(D1)
Description: as §1, §2, §3, §22, §23, §24, §25, §26, §27, §28, §29, §30, §31, §32

CWR22RV1 cells = test: Inhibition of proliferation of CWR22RV1 cells (CCK-8); assay type: cell-based, human; conditions: 6 days
Procedure, shortened: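 Cells seeded at 1500/well, cultured overnight, then exposed to compounds in 3-fold dilutions (9 concentrations from 10 μM top final, 0.1% DMSO) for 6 days at 37 °C. Viability read by CCK-8 absorbance at 450 nm after 2.5 h; IC50 from dose-response inhibition fit.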

BRD2(1,2), sequence (P25440 65-459): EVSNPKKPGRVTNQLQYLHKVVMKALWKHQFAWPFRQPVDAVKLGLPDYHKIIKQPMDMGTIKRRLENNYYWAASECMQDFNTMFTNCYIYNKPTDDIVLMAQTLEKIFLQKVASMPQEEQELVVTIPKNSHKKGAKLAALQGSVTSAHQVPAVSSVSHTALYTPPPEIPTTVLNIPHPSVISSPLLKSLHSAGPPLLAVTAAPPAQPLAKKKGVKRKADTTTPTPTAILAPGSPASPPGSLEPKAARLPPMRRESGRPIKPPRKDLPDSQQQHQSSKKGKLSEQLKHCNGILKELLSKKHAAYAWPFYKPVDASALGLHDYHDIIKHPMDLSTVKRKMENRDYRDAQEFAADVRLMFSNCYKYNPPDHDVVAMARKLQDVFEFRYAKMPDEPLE

SMILES: [2H]C([2H])([2H])n1cc(-c2cc(S(C)(=O)=O)ccc2N2CCC3(CC2)CC3)c2cc[nH]c2c1=O [Compound 56, 6-trideuteromethyl-4-(5(methylsulfonyl)-2-(6-aza-spiro[2.5]octan-6-yl)phenyl)-1H-pyrrolo[2,3-c]pyridin-7(6H)-one]
IC50 (BRD2(1,2)): 1.1 nM
IC50 (BRD4(1,2)): 7.1 nM
IC50 (BRD3(1,2)): 4.3 nM
IC50 (BRDT(D1)): 21 nM
IC50 (CWR22RV1 cells; Homo sapiens, CWR22Rv1, 144 h): 3 nM

SMILES: CCS(=O)(=O)Nc1ccc(N2CCC3(CC2)CC3(F)F)c(-c2cn(C)c(=O)c3[nH]ccc23)c1 [Compound 193, N-(4-(1,1-difluoro-6-aza-spiro[2.5]octan-6-yl)-3-(6-methyl-7-oxo-6,7-dihydro-1H-pyrrolo[2,3-c]pyridin-4-yl)phenyl)ethanesulfonamide]
IC50 (BRD2(1,2)): 2.7 nM
IC50 (BRD4(1,2)): 14 nM
IC50 (BRD3(1,2)): 5.8 nM
IC50 (BRDT(D1)): 32 nM
IC50 (CWR22RV1 cells; Homo sapiens, CWR22Rv1, 144 h): 4 nM

SMILES: [2H]C([2H])([2H])n1cc(-c2cc(S(=O)(=O)NC)ccc2N2CCC3(CC2)CC3)c2cc[nH]c2c1=O [Compound 202, N-methyl-3-(6-trideuteromethyl-7-oxo-6,7-dihydro-1H-pyrrolo [2,3-c]pyridin-4-yl)-4-(6-aza-spiro[2.5]octan-6-yl)benzenesulfonamide]
IC50 (BRD2(1,2)): 1.6 nM
IC50 (BRD4(1,2)): 5.1 nM
IC50 (BRD3(1,2)): 4.5 nM
IC50 (BRDT(D1)): 16 nM
IC50 (CWR22RV1 cells; Homo sapiens, CWR22Rv1, 144 h): 0.5 nM

SMILES: [2H]C([2H])([2H])n1cc(-c2cc(S(=O)(=O)N(C)C)ccc2N2CCC3(CC2)CC3(F)F)c2cc[nH]c2c1=O [Compound 204, 4-(1,1-difluoro-6-aza-spiro[2.5]octan-6-yl)-N,N-dimethyl-3-(6-trideuteromethyl-7-oxo-6,7-dihydro-1H-pyrrolo[2,3-c]pyridin-4-yl)benzenesulfonamide]
IC50 (BRD2(1,2)): 6.5 nM
IC50 (BRD4(1,2)): 10 nM
IC50 (BRD3(1,2)): 7.4 nM
IC50 (BRDT(D1)): 19 nM
IC50 (CWR22RV1 cells; Homo sapiens, CWR22Rv1, 144 h): 0.7 nM

SMILES: [2H]C([2H])([2H])n1cc(-c2cc(S(=O)(=O)NC)cnc2N2CCC3(CC2)CC3(F)F)c2cc[nH]c2c1=O [Compound 212, 6-(1,1-difluoro-6-aza-spiro[2.5]octan-6-yl)-N-methyl-5-(6-trideuteromethyl-7-oxo-6,7-dihydro-1H-pyrrolo[2,3-c]pyridin-4-yl)pyridin-3-sulfonamide]
IC50 (BRD2(1,2)): 1.7 nM
IC50 (BRD4(1,2)): 4.3 nM
IC50 (BRD3(1,2)): 4.6 nM
IC50 (BRDT(D1)): 13 nM

SMILES: [2H]C([2H])([2H])NS(=O)(=O)c1cnc(N2CCC3(CC2)CC3(F)F)c(-c2cn(C([2H])([2H])[2H])c(=O)c3[nH]ccc23)c1 [Compound 213, 6-(1,1-difluoro-6-aza-spiro[2.5]octan-6-yl)-N-trideuteromethyl-5-(6-trideuteromethyl-7-oxo-6,7-dihydro-1H-pyrrolo[2,3-c]pyridin-4-yl) pyridin-3-sulfonamide]
IC50 (BRD2(1,2)): 1.6 nM
IC50 (BRD4(1,2)): 4.1 nM
IC50 (BRD3(1,2)): 4.4 nM
IC50 (BRDT(D1)): 15 nM

SMILES: [2H]C([2H])([2H])n1cc(-c2cc(S(=O)(=O)CC)cnc2N2CCC3(CC2)CC3(F)F)c2cc[nH]c2c1=O [Compound 215, 4-(2-(1,1-difluoro-6-aza-spiro[2.5]octan-6-yl)-5-(ethylsulfonyl)pyridin-3-yl)-6-trideuteromethyl-1H-pyrrolo[2,3-c]pyridin-7(6H)-one]
IC50 (BRD2(1,2)): 2.9 nM
IC50 (BRD4(1,2)): 5.3 nM
IC50 (BRD3(1,2)): 5 nM
IC50 (BRDT(D1)): 16 nM

Further lines, with some results ahead:

IC50 (BRD2(1,2)): 1.4 nM and 1.5 nM
IC50 (BRD4(1,2)): 6.2 nM and 4.9 nM
IC50 (BRD3(1,2)): 4.9 nM and 4.5 nM
IC50 (BRDT(D1)): 20 nM and 19 nM
SMILES: [2H]C([2H])([2H])n1cc(-c2cc(S(N)(=O)=O)c(F)cc2N2CCC3(CC2)CC3(F)F)c2cc[nH]c2c1=O [Compound 217, 4-(1,1-difluoro-6-aza-spiro[2.5]octan-6-yl)-2-fluoro-5-(6-trideuteromethyl-7-oxo-6,7-dihydro-1H-pyrrolo[2,3-c]pyridin-4-yl)benzenesulfonamide]

IC50 (BRD2(1,2)): 3 nM
IC50 (BRD4(1,2)): 14 nM
IC50 (BRD3(1,2)): 5.2 nM
IC50 (BRDT(D1)): 18 nM
SMILES: [2H]C([2H])([2H])n1cc(-c2cc(S(=O)(=O)C(C)(C)C(=O)O)ccc2N2CCC3(CC2)CC3(F)F)c2cc[nH]c2c1=O [Compound 239, 2-((4-(1,1-difluoro-6-aza-spiro[2.5]octan-6-yl)-3-(6-trideuteromethyl-7-oxo-6,7-dihydro-1H-pyrrolo[2,3-c]pyridin-4-yl)phenyl)sulfonyl)-2-methylpropionic acid]
IC50 (CWR22RV1 cells; Homo sapiens, CWR22Rv1, 144 h): 7.8 nM

IC50 (BRD2(1,2)): 1.2 nM
IC50 (BRD4(1,2)): 6.4 nM
IC50 (BRD3(1,2)): 4.3 nM
IC50 (BRDT(D1)): 21 nM
SMILES: [2H]C([2H])([2H])n1cc(-c2cc(S(=O)(=O)N3CC[C@@H](O)C3)ccc2N2CCC3(CC2)CC3(F)F)c2cc[nH]c2c1=O [Compound 240, (R)-4-(2-(1,1-difluoro-6-aza-spiro[2.5]octan-6-yl)-5-((3-hydroxylpyrrolidin-1-yl)sulfonyl)phenyl)-6-trideuteromethyl-1H-pyrrolo[2,3-c]pyridin-7(6H)-one]
IC50 (CWR22RV1 cells; Homo sapiens, CWR22Rv1, 144 h): 4.8 nM

IC50 (BRD2(1,2)): 1.2 nM
IC50 (BRD4(1,2)): 5.8 nM
IC50 (BRD3(1,2)): 4.1 nM
IC50 (BRDT(D1)): 17 nM
SMILES: [2H]C([2H])([2H])n1cc(-c2cc(S(=O)(=O)N3CC[C@H](O)C3)ccc2N2CCC3(CC2)CC3(F)F)c2cc[nH]c2c1=O [Compound 241, (S)-4-(2-(1,1-difluoro-6-aza-spiro[2.5]octan-6-yl)-5-((3-hydroxylpyrrolidin-1-yl)sulfonyl)phenyl)-6-trideuteromethyl-1H-pyrrolo[2,3-c]pyridin-7(6H)-one]
IC50 (CWR22RV1 cells; Homo sapiens, CWR22Rv1, 144 h): 1.7 nM

IC50 (BRD2(1,2)): 1.5 nM
IC50 (BRD4(1,2)): 9.9 nM
IC50 (BRD3(1,2)): 5.3 nM
IC50 (BRDT(D1)): 19 nM
SMILES: [2H]C([2H])([2H])n1cc(-c2cc(S(=O)(=O)N3CC[C@@H](O)C3)cnc2N2CCC3(CC2)CC3)c2cc[nH]c2c1=O [Compound 242]
IC50 (CWR22RV1 cells; Homo sapiens, CWR22Rv1, 144 h): 2.2 nM

IC50 (BRD2(1,2)): 1.4 nM
IC50 (BRD4(1,2)): 8.9 nM
IC50 (BRD3(1,2)): 5.3 nM
IC50 (BRDT(D1)): 19 nM
SMILES: [2H]C([2H])([2H])n1cc(-c2cc(S(=O)(=O)N3CC[C@H](O)C3)cnc2N2CCC3(CC2)CC3)c2cc[nH]c2c1=O [Compound 243]
IC50 (CWR22RV1 cells; Homo sapiens, CWR22Rv1, 144 h): 1.3 nM

IC50 (BRD2(1,2)): 1.5 nM
IC50 (BRD4(1,2)): 4.3 nM
IC50 (BRD3(1,2)): 4.1 nM
IC50 (BRDT(D1)): 15 nM
SMILES: [2H]C([2H])([2H])n1cc(-c2cc(S(=O)(=O)CC)ccc2N2CCC3(CC2)CC3(F)F)c2cc[nH]c2c1=O [Compound 250, 4-(2-(1,1-difluoro-6-aza-spiro[2.5]octan-6-yl)-5-(ethylsulfonyl)phenyl)-6-trideuteromethyl-1H-pyrrolo[2,3-c]pyridin-7(6H)-one]
IC50 (CWR22RV1 cells): 120 nM

IC50 (BRD2(1,2)): 1.2 nM
IC50 (BRD4(1,2)): 3.4 nM
IC50 (BRD3(1,2)): 3.9 nM
IC50 (BRDT(D1)): 13 nM
SMILES: [2H]C([2H])([2H])n1cc(-c2cc(S(N)(=O)=O)ccc2N2CCC3(CC2)CC3(F)F)c2cc[nH]c2c1=O [Compound 251, 4-(1,1-difluoro-6-aza-spiro[2.5]octan-6-yl)-3-(6-trideuteromethyl-7-oxo-6,7-dihydro-1H-pyrrolo[2,3-c]pyridin-4-yl)benzenesulfonamide]

IC50 (BRD2(1,2)): 160 nM
IC50 (BRD4(1,2)): 680 nM
IC50 (BRD3(1,2)): 240 nM
IC50 (BRDT(D1)): 830 nM
SMILES: [2H]C([2H])([2H])n1cc(-c2cc(S(=O)(=O)N3C[C@H](O)C[C@H]3C(=O)O)ccc2N2CCC3(CC2)CC3(F)F)c2cc[nH]c2c1=O [Compound 252, (2S,4R)-1-((4-(1,1-difluoro-6-aza-spiro[2.5]octan-6-yl)-3-(6-trideuteromethyl-7-oxo-6,7-dihydro-1H-pyrrolo[2,3-c]pyridin-4-yl)phenyl)sulfonyl)-4-hydroxylpyrrolidin-2-carboxylic acid]
